From patent US20260015364A1, “PIPERAZINE BRIDGE-SUBSTITUTED HETEROCYCLIC PYRIMIDINE COMPOUND” (MEDSHINE DISCOVERY INC., priority 2022, published 2026)

Tests used:
[1] = test system: p-ERK in GP2D cells; assay: p-ERK inhibition test of GP2D cells (HTRF); assay type: cell-based; settings: Homo sapiens, 1 hour compound incubation
Protocol: • 1). GP2D cells are seeded in a transparent 96-well cell culture plate, with 80 μL of cell suspension per well and 8000 cells per well, and the cell plate is incubated in a carbon dioxide incubator at 37° C. overnight; • 2). 2 μL of the compound is added to 78 μL of cell culture medium; after mixing well, 20 μL of the compound solution is taken and added to the corresponding cell plate wells, and the cell plate is put back into the carbon dioxide incubator to incubate for another 1 hour; • 3). After the incubation is completed, the cell supernatant is discarded, and 50 μL of 1× cell lysate is added to each well, and incubated at room temperature for 30 minutes with shaking; • 4). Phospho-ERK1/2 Eu Cryptate antibody and Phospho-ERK1/2 d2 antibody are 20-fold diluted using detection buffer; • 5). […] After the incubation is completed, a multimode microplate reader is used to read HTRF excitation: 320 nm, emission: 615 nm, 665 nm; • 7). The IC50 of the test compound is calculated.
• 1). […] After the incubation was completed, a multimode microplate reader was used to read HTRF excitation: 320 nm, emission: 615 nm, 665 nm; • 7) The IC50 of the test compound was calculated.

[2] = test system: GP2D human colon cancer cells with KRAS^G12D mutation; assay: GP2D 3D CTG experiment (anti-proliferation); assay type: cell-based; settings: 120 h, 5 days incubation
Text: This experiment aims to verify the inhibitory effect of the compounds of the present disclosure on the proliferation of GP2D human colon cancer cells with KRAS^G12D mutation.
Cell line GP2D and DMEM medium were purchased from GIBCO, FBS was purchased from Hyclone, and L-glutamine was purchased from Invitrogen. The 96-well plate was purchased from Ultra Low Cluster. CellTiter-Glo® 3D Cell Viability Assay reagents (chemiluminescent 3D cell viability assay reagents) were purchased from Promega, and 2104 En Vision plate reader was purchased from PerkinElmer.
GP2D cells were cultured in an incubator at 37° C. with 5% CO2 under the conditions of DMEM+10% FBS+2 mM L-glutamine. Regular passaging was performed, and cells in the logarithmic growth phase were selected for plating. GP2D cells were seeded in a 96-well U-bottom cell culture plate, and each well of 135 μL cell suspension contained 6000 GP2D cells. The culture plate was cultured overnight in a 37° C., 5% CO2 incubator with 100% relative humidity. The test compound was diluted 5-fold to the eighth concentration using a pipette, ranging from 200 μM to 2.56 nM, and tested in duplicate. 78 μL of culture medium per well was added to an intermediate plate. […] A multimode microplate reader was used for reading. […]

[3] = test system: PANC04.03 cell subcutaneously transplanted tumors; assay: In vivo pharmacodynamic experiment of PANC04.03 tumor model; set-up: species or system Balb/c Nude mice; settings: p.o., BID, 28 days of administration
Protocol: In vivo pharmacodynamics of PANC04.03 cell subcutaneously transplanted tumors in Balb/c Nude mice model with human pancreatic cancer
Cell culture: Human pancreatic cancer PANC04.03 cells were cultured in monolayer in vitro. The culture conditions were RPMI-1640+15% FBS+10 units/mL insulin, and cultured in a 37° C., 5% carbon dioxide incubator. Routine digestion with trypsin-EDTA was performed twice a week for passaging. When the cell saturation reached 80% to 90% and the required quantity was reached, the cells were harvested, counted, and resuspended in an appropriate amount of PBS to obtain a cell suspension with a cell density of 25×10^6 cells/mL.
Cell inoculation: 0.2 mL (5×10^6 cells/mouse) of PANC04.03 cells were subcutaneously inoculated into the right back of each mouse.
Experimental operation: When the average tumor volume reached 190 mm^3, the mice were randomly divided into groups according to the tumor volume, with 6 animals in each group. The blank group was administered with a dose of 0, and the test group was orally administered with a dose of 30 mg/kg, 100 mg/kg, 150 mg/kg, and a volume of 10 μL/g, respectively, and was administered twice a day for 28 days.
Tumor diameters were measured twice a week with a vernier caliper. The formula for calculating tumor volume is: V=0.5a×b^2, wherein a and b represent the long and short diameters of the tumor, respectively.
The tumor inhibitory efficacy of the compound was evaluated by TGI (%) or relative tumor proliferation rate T/C (%). Relative tumor proliferation rate T/C (%)=TRTV/CRTV×100% (TRTV:RTV of treatment group; CRTV:RTV of negative control group). The relative tumor volume (RTV) was calculated based on the results of tumor measurements. The calculation formula is RTV=Vt/V0, where V0 is the average tumor volume measured at the beginning of administration in groups (i.e., D0), and Vt is the average tumor volume measured at a certain measurement. TRTV and CRTV used the data from the same day.
TGI (%) reflected the tumor growth inhibition rate. […]

C#Cc1c(F)ccc2cc(N)cc(-c3ncc4c(N5CC6CCC(C5)N6)nc(OC[C@@]56CC(=C)CN5C[C@@H]5C[C@@H]56)nc4c3F)c12 (single isomer, unassigned) [Compound 3]
IC50 [1]: 2.4 nM
IC50 [2]: 0.54 nM
TGI ([3]; 30 mpk): 95.41%
TGI ([3]; 100 mpk): 108.41%
TGI ([3]; 150 mpk): 115.80%
